Reference: patent publication US4767770A, “Method of inhibiting aromatase” (Eli Lilly and Company, priority 1984, dated 1988)

What was measured:
[1] = test system: estrogen synthesis (ovarian estradiol, estrone, estriol); experiment: Estrogen Synthesis Inhibition in Rats: ovarian steroid concentration after [3H]-testosterone; type: in vivo, immature female Wistar rats; conditions: Test I, 7 days; for Mean Steroid Concentration, estrone: testosterone-treated control 0.10; for Mean Steroid Concentration, estriol: testosterone-treated control 0.24; for Mean Steroid Concentration, estradiol: testosterone-treated control 1.43
Procedure: Test compounds were administered for seven days as a component of the diet. Control animals received diet without the test compound. Beginning on the fourth day of the test, all animals treated with the test compound and one half of the control animals were given a subcutaneous injection of 1.0 mg of testosterone propionate in corn oil. The remaining control animals received only an equivalent volume of corn oil.
The ovarian steroids were extracted with 1.5 ml of 9:1 (v/v) toluene/ethanol to which had been added 25 to 100 mcg each of unlabelled estradiol, estriol, and estrone, and approximately 1000 dpm of [^14 C]-estradiol. The samples were vortexed, centrifuged at 500×g for 10 minutes, and the organic phase was transferred to a conical vial. Two additional extractions were performed on the residue in the same way. The pooled organic extracts were evaporated for subsequent thin-layer chromatography.
Ovarian proteins were precipitated by the addition of 5.0 ml of ethanol to the remaining aqueous phase. After an overnight incubation at 4° C., the samples were centrifuged at 1500×g for 10 minutes. The supernatant was discarded and the pellet was dissolved in 0.3N potassium hydroxide.
The organic residue from each above extraction was redissolved in 9:1 (v/v) dichloromethane/methanol. The solution of each sample was applied to separate silica gel thin layer chromatography plates which contained a fluorescent indicator. The plates were developed in the first dimension with 160:38:1.5:0.5 (v/v/v/v) dichloromethane/ethyl acetate/methanol/acetic acid to within 3 cm of the top of the plate. After air-drying, the plate was developed in the second dimension with 180:19:1 (v/v/v) dichloromethane/methanol/ammonium hydroxide.
The spots were scraped from the plate using a glass wool plugged Pasteur pipet attached to a vacuum line. The steroids were eluted directly into scintillation vials by the addition of 0.2 ml of dichloromethane followed by two washes each of 2.0 ml of methanol. The organic solvent was evaporated and 10.0 ml of scintillation fluid (Beckman Ready Solv-NA) was added to the vials. Samples were analyzed by liquid scintillation spectrometry. Corrections were made based on the recoveries of the [^14 C]-steroid. Steroid concentrations are expressed as femtomoles per milligram protein.

[2] = test system: estrogen synthesis (aromatization); uterus; experiment: Estrogen Synthesis Inhibition in Rats: uterine weight of testosterone propionate-treated immature rats; type: in vivo, immature female Wistar rats; conditions: Test I, 7 days, value marked + (p < 0.05 vs testosterone-treated control, 211.5)
Procedure: Immature female Wistar rats (45-55 grams) were divided into control and test groups of 2-8 animals each. Test compounds were administered for seven days as a component of the diet. Control animals received diet without the test compound. Beginning on the fourth day of the test, all animals treated with the test compound and one half of the control animals were given a subcutaneous injection of 1.0 mg of testosterone propionate in corn oil. The remaining control animals received only an equivalent volume of corn oil. On the seventh day of the test, rats treated with testosterone propionate were injected subcutaneously with 100 μCi of [^3 H]-testosterone in 50 μl of 3:1 (v/v) saline-ethanol.
After two hours, the animals were killed by decapitation. Uteri were isolated, trimmed of extraneous connective tissue, and weighed. […] In the control animals treated with testosterone propionate, estrogens produced by aromatization stimulated the uterus resulting in an increase in weight.
*ppm in feed. 300 ppm corresponds to approximately 30 mg/kg/day; 200 ppm
corresponds to approximately 20 mg/kg/day; 30 ppm corresponds to
approximately 3 mg/kg/day.

[3] = target: T1, aromatase (Rattus norvegicus, UniProt P22443); experiment: biochemical
T1 sequence (P22443 1-508): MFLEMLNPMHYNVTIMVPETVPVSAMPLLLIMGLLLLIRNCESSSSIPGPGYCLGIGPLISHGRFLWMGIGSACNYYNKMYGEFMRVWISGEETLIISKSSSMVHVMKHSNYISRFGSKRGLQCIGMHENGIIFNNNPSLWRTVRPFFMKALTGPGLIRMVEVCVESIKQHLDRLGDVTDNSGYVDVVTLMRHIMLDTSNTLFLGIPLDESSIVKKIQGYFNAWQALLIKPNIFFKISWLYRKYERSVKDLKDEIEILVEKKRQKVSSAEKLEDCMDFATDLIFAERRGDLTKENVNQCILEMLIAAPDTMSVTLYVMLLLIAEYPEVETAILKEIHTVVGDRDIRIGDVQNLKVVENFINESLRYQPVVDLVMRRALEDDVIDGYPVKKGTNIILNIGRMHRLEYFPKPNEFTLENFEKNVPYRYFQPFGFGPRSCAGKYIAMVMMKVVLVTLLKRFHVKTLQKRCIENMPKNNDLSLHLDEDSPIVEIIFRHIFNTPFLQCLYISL
Procedure: In this test system, ovarian microsomes are obtained from rats treated with pregnant mares serum gonadotropin. Test compounds are added to reaction vials containing 0.1 μM 4-androstene-3,17-dione, 100,000 dpm 1,2[^3 H]-androstenedione, the microsomes and a NADPH generating system. The concentrations of the inhibitors tested ranged between 0.005 and 10 μM.

[4] = test system: DMBA-induced mammary tumors; experiment: DMBA-induced Mammary Tumor Inhibition; type: in vivo, female Sprague-Dawley rats; conditions: Test II, 300 ppm in diet (approx. 30 mg/kg/day), 4 weeks
Procedure: Mammary tumors were produced in female Sprague-Dawley rats which were 50-60 days old by the gavage administration of 20 mg of 7,12-dimethylbenz[a]anthracene (DMBA). About six weeks after DMBA administration, the mammary glands were palpated at weekly intervals for the appearance of tumors. Whenever one or more tumors appeared and were measurable in an animal, that animal was selected for experimentation. […] Each control and test group contained 8 animals. The test compound was administered mixed into the food at a concentration of 300 ppm (corresponding to an appropriate daily dose of 30 mg/kg). Every experiment included a group of control rats having tumors and were given food without the compound admixed. […] The area of each tumor was calculated by multiplying the shortest and longest diameters of the tumor. The treatment and measurement of animals continued for 4-5 weeks at which time the final areas of the tumors were determined. For each compound (and control) at each dose level, the change in the mean tumor area was determined.
*dosed in the diet. 300 ppm corresponds to approximately 30 mg/kg/day.

[5] = test system: breast cancer; conditions: result in words; see Cancer Research, Vol. 42, Suppl. 8:3261s (1982); cited from earlier work
[6] = 30 ppm in feed (approx. 3 mg/kg/day)
[7] = 300 ppm in feed (approx. 30 mg/kg/day)

Clc1ccc(N(Cc2cccnc2)C2=NCCS2)cc1 [N--(4-chlorophenyl)-N--(4,5-dihydro-2-thiazolyl)-3-pyridinemethanamine]
Mean Steroid Concentration, estrone [1, 6]: 0.31 femtomoles per milligram of protein | Mean Steroid Concentration, estriol [1, 6]: 0.27 femtomoles per milligram of protein | Mean Steroid Concentration, estradiol [1, 6]: 1.46 femtomoles per milligram of protein | Mean Steroid Concentration, estrone [1, 7]: 0.09 femtomoles per milligram of protein | Mean Steroid Concentration, estriol [1, 7]: 0.46 femtomoles per milligram of protein | Mean Steroid Concentration, estradiol [1, 7]: 1.42 femtomoles per milligram of protein | Mean Uterine Weight [2, 6]: 141.5 mg | Mean Uterine Weight [2, 7]: 136.0 mg | EC50 [3]: 68 nM | Mean Tumor Area, Start ([4]; baseline, control 62.8): 61.4 mm^2 | Mean Tumor Area, Finish ([4]; control 1087.0): 464.0 mm^2

CCC1(c2ccc(N)cc2)CCC(=O)NC1=O (stereo not shown) [aminoglutethimide]
effect in treatment of breast cancer [5]: beneficial effect in treatment of breast cancer

C[C@]12C=CC(=O)C=C1CC[C@@H]1[C@@H]2CC[C@]2(C)OC(=O)CC[C@@H]12 [testolactone]
effect in treatment of breast cancer [5]: beneficial effect in treatment of breast cancer
